The results in this text go back to patent US20230150974A1 (Foghorn Therapeutics Inc., priority 2020, published 2023).

The target in test [1] is T1, HiBit-BRG1 (Homo sapiens, UniProt P51532).
T1 construct: expressed in transfected cells
As to the kind of experiment: HiBit-BRG1 cell-based degradation assay (Nano-Glo HiBiT Lytic Detection). Conditions: HeLa cells expressing HiBit-BRG1 and LgBit, 24 h; for DC50: read-out: BRG1 HiBit Degradation IC50; for Dmax: read-out: BRG1 HiBit Degradation Maximum (%). Summed up: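 HeLa cells stably expressing HiBiT-BRG1 plus LgBit, 5000/well, treated 24 h, then lysed with Nano-Glo HiBiT lytic reagent and luminescence read. % degradation normalised between DMSO (high control) and 2 μM reference BRM/BRG1 degrader (low control).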
In general terms: With HiBiT, luminescence reflects the tagged protein that the partner subunit can reach.

For test [2], the target named is T2, HiBiT-BRM (Homo sapiens, UniProt P51531).
T2 construct: expressed in transfected cells
T2 sequence (P51531 whole entry): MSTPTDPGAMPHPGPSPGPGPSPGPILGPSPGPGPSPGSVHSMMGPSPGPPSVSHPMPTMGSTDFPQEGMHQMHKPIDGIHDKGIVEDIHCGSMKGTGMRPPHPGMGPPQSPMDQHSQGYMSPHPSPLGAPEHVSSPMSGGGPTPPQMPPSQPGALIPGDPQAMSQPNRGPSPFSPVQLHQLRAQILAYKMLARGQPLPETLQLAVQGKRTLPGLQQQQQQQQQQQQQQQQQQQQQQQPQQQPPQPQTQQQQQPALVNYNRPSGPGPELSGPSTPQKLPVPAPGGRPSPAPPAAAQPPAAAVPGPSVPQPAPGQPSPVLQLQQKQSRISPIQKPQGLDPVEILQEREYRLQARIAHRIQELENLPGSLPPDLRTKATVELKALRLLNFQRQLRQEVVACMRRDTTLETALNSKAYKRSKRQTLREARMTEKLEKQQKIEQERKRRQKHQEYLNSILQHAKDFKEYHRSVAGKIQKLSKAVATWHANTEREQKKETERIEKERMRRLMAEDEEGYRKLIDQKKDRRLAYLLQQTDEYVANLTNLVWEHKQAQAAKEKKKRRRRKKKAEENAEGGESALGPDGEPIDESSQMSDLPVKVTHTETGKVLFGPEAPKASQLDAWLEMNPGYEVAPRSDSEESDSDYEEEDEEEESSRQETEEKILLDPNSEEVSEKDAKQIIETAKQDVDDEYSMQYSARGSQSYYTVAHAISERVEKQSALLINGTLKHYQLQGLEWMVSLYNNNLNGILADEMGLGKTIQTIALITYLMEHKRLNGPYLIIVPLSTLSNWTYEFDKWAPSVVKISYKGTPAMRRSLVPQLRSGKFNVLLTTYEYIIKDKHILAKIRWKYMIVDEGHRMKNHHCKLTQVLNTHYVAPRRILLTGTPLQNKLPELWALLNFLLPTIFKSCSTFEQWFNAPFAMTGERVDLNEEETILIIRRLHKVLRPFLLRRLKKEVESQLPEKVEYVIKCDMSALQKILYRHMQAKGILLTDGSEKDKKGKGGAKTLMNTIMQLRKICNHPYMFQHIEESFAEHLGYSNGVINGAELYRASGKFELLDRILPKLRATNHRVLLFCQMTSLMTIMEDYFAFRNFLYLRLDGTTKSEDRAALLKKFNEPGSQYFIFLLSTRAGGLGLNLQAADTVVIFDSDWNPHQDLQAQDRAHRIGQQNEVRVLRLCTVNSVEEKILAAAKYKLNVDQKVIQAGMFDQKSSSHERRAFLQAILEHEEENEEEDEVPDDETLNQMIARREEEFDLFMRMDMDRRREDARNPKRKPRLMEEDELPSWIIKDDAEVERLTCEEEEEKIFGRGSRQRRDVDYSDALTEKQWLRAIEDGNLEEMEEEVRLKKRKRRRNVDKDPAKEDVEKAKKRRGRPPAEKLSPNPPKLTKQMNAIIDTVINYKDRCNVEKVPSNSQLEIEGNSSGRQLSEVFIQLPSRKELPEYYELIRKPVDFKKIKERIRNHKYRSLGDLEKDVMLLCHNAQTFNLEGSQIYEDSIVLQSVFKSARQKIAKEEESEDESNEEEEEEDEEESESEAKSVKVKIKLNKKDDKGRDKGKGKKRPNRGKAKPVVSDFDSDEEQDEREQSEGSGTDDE
Nature of the test: HiBiT-BRM cell-based degradation assay (Nano-Glo HiBiT Lytic Detection). Conditions: HeLa cells expressing HiBiT-BRM, 24 h; for DC50: read-out: BRM HiBit Degradation IC50. Summed up:
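Luminescence from HiBiT–LgBiT complementation in lysates of a stable HiBiT-BRM HeLa line measured after 24 h compound exposure. Degradation expressed as percent relative to DMSO-treated cells and cells given 2 μM of a known BRM/BRG1 degrader.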

T1 sequence (P51532 whole entry): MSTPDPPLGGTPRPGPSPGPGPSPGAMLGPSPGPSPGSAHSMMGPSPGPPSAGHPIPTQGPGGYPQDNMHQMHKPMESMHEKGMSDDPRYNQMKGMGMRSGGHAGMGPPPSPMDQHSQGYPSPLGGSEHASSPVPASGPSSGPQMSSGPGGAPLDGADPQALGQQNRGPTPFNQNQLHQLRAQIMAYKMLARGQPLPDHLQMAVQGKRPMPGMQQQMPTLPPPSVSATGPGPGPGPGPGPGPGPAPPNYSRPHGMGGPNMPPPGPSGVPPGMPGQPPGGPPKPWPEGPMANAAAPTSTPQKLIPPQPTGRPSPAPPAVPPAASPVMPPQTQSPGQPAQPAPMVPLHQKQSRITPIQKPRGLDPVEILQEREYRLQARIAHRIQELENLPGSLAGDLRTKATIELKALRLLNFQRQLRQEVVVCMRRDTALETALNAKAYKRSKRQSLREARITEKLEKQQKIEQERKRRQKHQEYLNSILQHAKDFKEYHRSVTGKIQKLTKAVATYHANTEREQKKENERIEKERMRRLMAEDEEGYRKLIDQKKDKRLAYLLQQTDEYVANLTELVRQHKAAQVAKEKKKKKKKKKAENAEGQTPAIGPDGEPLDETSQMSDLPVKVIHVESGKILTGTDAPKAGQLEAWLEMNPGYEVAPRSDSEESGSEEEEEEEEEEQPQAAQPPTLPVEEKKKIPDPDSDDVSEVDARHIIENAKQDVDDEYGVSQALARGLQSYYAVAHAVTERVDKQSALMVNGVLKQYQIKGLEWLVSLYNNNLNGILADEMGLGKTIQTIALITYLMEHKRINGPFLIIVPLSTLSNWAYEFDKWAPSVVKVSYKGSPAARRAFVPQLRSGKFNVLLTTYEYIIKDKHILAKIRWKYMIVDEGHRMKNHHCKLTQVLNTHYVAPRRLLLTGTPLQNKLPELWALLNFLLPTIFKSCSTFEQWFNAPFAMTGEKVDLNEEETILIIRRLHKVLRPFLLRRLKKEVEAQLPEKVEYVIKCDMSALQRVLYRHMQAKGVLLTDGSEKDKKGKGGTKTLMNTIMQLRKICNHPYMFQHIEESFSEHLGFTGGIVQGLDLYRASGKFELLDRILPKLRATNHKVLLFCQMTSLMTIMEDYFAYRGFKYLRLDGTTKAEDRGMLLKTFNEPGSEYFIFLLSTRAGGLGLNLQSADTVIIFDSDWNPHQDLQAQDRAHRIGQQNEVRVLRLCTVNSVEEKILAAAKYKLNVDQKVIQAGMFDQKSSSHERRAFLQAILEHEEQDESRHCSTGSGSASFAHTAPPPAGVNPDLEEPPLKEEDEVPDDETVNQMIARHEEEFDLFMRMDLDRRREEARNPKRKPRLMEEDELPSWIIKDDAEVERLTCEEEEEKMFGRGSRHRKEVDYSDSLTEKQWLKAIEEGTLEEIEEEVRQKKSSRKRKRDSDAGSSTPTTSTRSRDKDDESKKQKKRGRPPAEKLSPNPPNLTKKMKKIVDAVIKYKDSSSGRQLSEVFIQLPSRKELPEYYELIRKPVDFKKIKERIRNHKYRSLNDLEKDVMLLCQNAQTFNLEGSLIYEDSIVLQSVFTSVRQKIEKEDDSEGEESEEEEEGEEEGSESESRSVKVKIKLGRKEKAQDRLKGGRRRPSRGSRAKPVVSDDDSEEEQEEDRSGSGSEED

For `Cc1ncsc1-c1ccc(CNC(=O)[C@@H]2C[C@@H](O)CN2C(=O)[C@@H](NC(=O)CCCCCCCCCCCCCC(=O)N(C)Cc2ccc(CCOc3cc(-c4ccccc4O)nnc3N)cc2)C(C)(C)C)cc1` [Compound 159, N1-(4-(2-((3-amino-6-(2-hydroxyphenyl)pyridazin-4-yl)oxy)ethyl)benzyl)-N15-((S)-1-((2S,4R)-4-hydroxy-2-((4-(4-methylthiazol-5-yl)benzyl)carbamoyl)pyrrolidin-1-yl)-3,3-dimethyl-1-oxobutan-2-yl)-N1-methylpentadecanediamide], in test [1], the DC50 was greater than 1000 nM and the Dmax is less than 50%. For the same compound, in test [2], the “BRM HiBit Degradation Maximum (%)” value was “A (“A” indicates maximum degradation ≥75%)” and the DC50 is greater than 10 nM.
For `Cc1ncsc1-c1ccc([C@H](C)NC(=O)[C@@H]2C[C@@H](O)CN2C(=O)[C@@H](c2cc(OCCN(C)Cc3ccc(CCOc4cc(-c5ccccc5O)nnc4N)cc3)no2)C(C)C)cc1` [Compound 251, (2S,4R)-1-((R)-2-(3-(2-((4-(2-((3-amino-6-(2-hydroxyphenyl)pyridazin-4-yl)oxy)ethyl)benzyl)(methyl)amino)ethoxy)isoxazol-5-yl)-3-methylbutanoyl)-4-hydroxy-N-((S)-1-(4-(4-methylthiazol-5-yl)phenyl)ethyl)pyrrolidine-2-carboxamide], in test [1], the DC50 is less than 10 nM and the Dmax is greater than 75%. Further, in test [2], the “BRM HiBit Degradation Maximum (%)” value is given as “A (“A” indicates maximum degradation ≥75%)” and the DC50 is less than 10 nM.
For `Nc1nnc(-c2ccccc2O)cc1N1CCN(CCNC(=O)CCCCCCCCCNc2cccc3c2C(=O)N(C2CCC(=O)NC2=O)C3=O)CC1` (centres unmarked) [Compound 98, N-(2-[4-[3-amino-6-(2-hydroxyphenyl)pyridazin-4-yl]piperazin-1-yl]ethyl)-10-[[2-(2,6-dioxopiperidin-3-yl)-1,3-dioxo-2,3-dihydro-1H-isoindol-4-yl]amino]decanamide], in test [1], the DC50 is greater than 1000 nM and the Dmax was less than 50%. In test [2], the “BRM HiBit Degradation Maximum (%)” value is recorded as “C (“C” indicates maximum degradation <50%)” and the DC50 is greater than 1000 nM.
With `Cc1ncsc1-c1ccc(CNC(=O)[C@@H]2C[C@@H](O)CN2C(=O)[C@@H](NC(=O)CN2CCC3(CCN(CCC(=O)NCc4ccc(CCOc5cc(-c6ccccc6O)nnc5N)cc4)CC3)CC2)C(C)(C)C)cc1` [Compound 266, (2S,4R)-1-((S)-2-(2-(9-(3-((4-(2-((3-amino-6-(2-hydroxyphenyl)pyridazin-4-yl)oxy)ethyl)benzyl)amino)-3-oxopropyl)-3,9-diazaspiro[5.5]undecan-3-yl)acetamido)-3,3-dimethylbutanoyl)-4-hydroxy-N-(4-(4-methylthiazol-5-yl)benzyl)pyrrolidine-2-carboxamide], in test [1], the DC50 was greater than 1000 nM and the Dmax is less than 50%. In test [2], the “BRM HiBit Degradation Maximum (%)” value was “A (“A” indicates maximum degradation ≥75%)” and the DC50 was greater than 1000 nM.
For `Cc1nc2cccc(NCCCCCCCCNC(=O)c3ccc(CCOc4cc(-c5ccccc5O)nnc4N)cc3)c2c(=O)n1C1CCC(=O)NC1=O` (centres unmarked) [Compound 45, 4-(2-[[3-amino-6-(2-hydroxyphenyl)pyridazin-4-yl]oxy]ethyl)-N-(8-[[3-(2,6-dioxopiperidin-3-yl)-2-methyl-4-oxoquinazolin-5-yl]amino]octyl)benzamide], in test [1], the DC50 is greater than 1000 nM and the Dmax was less than 50%. In test [2], the “BRM HiBit Degradation Maximum (%)” value is “C (“C” indicates maximum degradation <50%)” and the DC50 was greater than 1000 nM.
`Cc1ncsc1-c1ccc([C@H](C)NC(=O)[C@@H]2C[C@@H](O)CN2C(=O)[C@@H](c2cc(OCCN3CC4(C3)CN(C(=O)c3ccc(CCOc5cc(-c6ccccc6O)nnc5N)cc3)C4)no2)C(C)C)cc1` [Compound 208, (2S,4R)-1-[(2R)-2-[3-(2-[6-[4-(2-[[3-amino-6-(2-hydroxyphenyl)pyridazin-4-yl]oxy]ethyl)benzoyl]-2,6-diazaspiro[3.3]heptan-2-yl]ethoxy)-1,2-oxazol-5-yl]-3-methylbutanoyl]-4-hydroxy-N-[(1S)-1-[4-(4-methyl-1,3-thiazol-5-yl)phenyl]ethyl]pyrrolidine-2-carboxamide]: in test [1], the DC50 is greater than 100 nM and the Dmax was greater than 75%. Further, in test [2], the “BRM HiBit Degradation Maximum (%)” value is listed as “A (“A” indicates maximum degradation ≥75%)” and the DC50 was greater than 10 nM.
For the compound `Cc1ncsc1-c1ccc([C@H](C)NC(=O)[C@@H]2C[C@@H](O)CN2C(=O)[C@@H](NC(=O)CN2CCC(OC3CCN(CCC(=O)NCc4ccc(CCOc5cc(-c6ccccc6O)nnc5N)cc4)CC3)CC2)C(C)(C)C)cc1` [Compound 258, (2S,4R)-1-((S)-2-(2-(4-((1-(3-((4-(2-((3-amino-6-(2-hydroxyphenyl)pyridazin-4-yl)oxy)ethyl)benzyl)amino)-3-oxopropyl)piperidin-4-yl)oxy)piperidin-1-yl)acetamido)-3,3-dimethylbutanoyl)-4-hydroxy-N-((S)-1-(4-(4-methylthiazol-5-yl)phenyl)ethyl)pyrrolidine-2-carboxamide], in test [1], the DC50 was greater than 1000 nM and the Dmax was greater than 50%. In addition, in test [2], the “BRM HiBit Degradation Maximum (%)” value is “A (“A” indicates maximum degradation ≥75%)” and the DC50 was greater than 100 nM.
As to `Nc1nnc(-c2ccccc2O)cc1OCCc1ccc(C(=O)NCCOCCOCCNc2cccc3c2CN(C2CCC(=O)NC2=O)C3=O)cc1` (centres unmarked) [Compound 54, 4-(2-[[3-amino-6-(2-hydroxyphenyl)pyridazin-4-yl]oxy]ethyl)-N-[2-[2-(2-[[2-(2,6-dioxopiperidin-3-yl)-1-oxo-3H-isoindol-4-yl]amino]ethoxy)ethoxy]ethyl]benzamide], in test [1], the DC50 is greater than 1000 nM and the Dmax was less than 50%. In test [2], the “BRM HiBit Degradation Maximum (%)” value is “C (“C” indicates maximum degradation <50%)” and the DC50 is greater than 1000 nM.
For the compound `Nc1nnc(-c2ccccc2O)cc1OCCc1ccc(CNCCCCCNc2ccc3c(c2)C(=O)N(C2CCC(=O)NC2=O)C3=O)cc1` (centres unmarked) [Compound 117, 5-[[5-([[4-(2-[[3-amino-6-(2-hydroxyphenyl)pyridazin-4-yl]oxy]ethyl)phenyl]methyl]amino)pentyl]amino]-2-(2,6-dioxopiperidin-3-yl)isoindole-1,3-dione], in test [1], the DC50 was greater than 1000 nM and the Dmax is greater than 75%. In test [2], the “BRM HiBit Degradation Maximum (%)” value was “B (“B” indicates maximum degradation ≥50%)” and the DC50 was greater than 1000 nM.
Turning to `Cc1ncsc1-c1ccc(CNC(=O)[C@H]2C[C@H](O)CN2C(=O)[C@H](NC(=O)COCCOCCOCCNC(=O)c2ccc(CCOc3cc(-c4ccccc4O)nnc3N)cc2)C(C)(C)C)cc1` (stereo in doubt) [Compound 60, (2R,4S)-1-[(2R)-2-(2-[2-[2-(2-[[4-(2-[[3-amino-6-(2-hydroxyphenyl)pyridazin-4-yl]oxy]ethyl)phenyl]formamido]ethoxy)ethoxy]ethoxy]acetamido)-3,3-dimethylbutanoyl]-4-hydroxy-N-[[4-(4-methyl-1,3-thiazol-5-yl)phenyl]methyl]pyrrolidine-2-carboxamide], in test [1], the DC50 is greater than 1000 nM and the Dmax is less than 50%. In test [2], the “BRM HiBit Degradation Maximum (%)” value is listed as “B (“B” indicates maximum degradation ≥50%)” and the DC50 was greater than 1000 nM.
For `Cc1ncsc1-c1ccc(CNC(=O)[C@@H]2C[C@@H](O)CN2C(=O)[C@@H](NC(=O)CCN2CCN(CCOc3cc(N4[C@@H]5CC[C@H]4CN(c4cc(-c6ccccc6O)nnc4N)C5)ccn3)CC2)C(C)(C)C)cc1` [Compound 232, (2S,4R)-1-((2S)-2-(3-(4-(2-((4-(3-(3-amino-6-(2-hydroxyphenyl)pyridazin-4-yl)-3,8-diazabicyclo[3.2.1]octan-8-yl)pyridin-2-yl)oxy)ethyl)piperazin-1-yl)propanamido)-3,3-dimethylbutanoyl)-4-hydroxy-N-(4-(4-methylthiazol-5-yl)benzyl)pyrrolidine-2-carboxamide], in test [1], the DC50 is greater than 1000 nM and the Dmax is less than 50%. Besides, in test [2], the “BRM HiBit Degradation Maximum (%)” value is recorded as “A (“A” indicates maximum degradation ≥75%)” and the DC50 was greater than 100 nM.
As to `Nc1nnc(-c2ccccc2O)cc1OCCc1ccc(CNC(=O)CCCCOc2ccc3c(c2)C(=O)N(C2CCC(=O)NC2=O)C3=O)cc1` (centres unmarked) [Compound 5, N-(4-(2-((3-amino-6-(2-hydroxyphenyl)pyridazin-4-yl)oxy)ethyl)benzyl)-5-((2-(2,6-dioxopiperidin-3-yl)-1,3-dioxoisoindolin-5-yl)oxy)pentanamide], the DC50 in test [1] was greater than 1000 nM. In test [2], the “BRM HiBit Degradation Maximum (%)” value is listed as “C (“C” indicates maximum degradation <50%)” and the DC50 was greater than 1000 nM.
`Nc1nnc(-c2ccccc2O)cc1OCCc1ccc(CNC(=O)CCCCOc2ccc3c(c2)C(=O)N(C2CCC(=O)NC2=O)C3)cc1` (centres unmarked) [Compound 128, N-(4-(2-((3-amino-6-(2-hydroxyphenyl)pyridazin-4-yl)oxy)ethyl)benzyl)-5-((2-(2,6-dioxopiperidin-3-yl)-3-oxoisoindolin-5-yl)oxy)pentanamide]: the DC50 in test [1] was greater than 1000 nM. Moreover, in test [2], the “BRM HiBit Degradation Maximum (%)” value is given as “C (“C” indicates maximum degradation <50%)” and the DC50 is greater than 1000 nM.
